The text below walks through data of ChEMBL document CHEMBL5036359, “Repositioning Food and Drug Administration-Approved Drugs for Inhibiting Biliverdin IXβ Reductase B as a Novel Thrombocytopenia Therapeutic Target” (J Med Chem, 2022).

Assay [1] addresses T1, Flavin reductase (NADPH) (Homo sapiens) (UniProt P30043).
T1 sequence (whole entry): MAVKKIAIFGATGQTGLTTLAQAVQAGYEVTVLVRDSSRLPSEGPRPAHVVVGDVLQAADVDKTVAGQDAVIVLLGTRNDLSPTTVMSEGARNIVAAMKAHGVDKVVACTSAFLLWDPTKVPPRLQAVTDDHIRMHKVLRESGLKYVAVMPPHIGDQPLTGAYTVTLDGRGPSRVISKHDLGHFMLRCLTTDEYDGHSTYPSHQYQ
Kind of assay: Binding affinity to human N-terminal His6-tagged and thrombin cleavage fused BLVRB expressed in Escherichia coli BL21 (DE3) assessed as change in enthalpy by isothermal titration calorimetry. (Isothermal titration calorimetry measures the heat released or taken up as one component is titrated into another.)

In assay [2] the target is T1, Flavin reductase (NADPH) (Homo sapiens). Description: Binding affinity to human N-terminal His6-tagged and thrombin cleavage fused BLVRB expressed in Escherichia coli BL21 (DE3) assessed as change in gibbs free energy by isothermal titration calorimetry.
For assay [3], the target named is T2, Flavin reductase (NADPH) (Homo sapiens, UniProt P30043).
T2 sequence (P30043 whole entry): T1 sequence (whole entry)
Kind of assay: Binding affinity to human N-terminal His6-tagged and thrombin cleavage fused BLVRB expressed in Escherichia coli BL21 (DE3) assessed as dissociation constant by isothermal titration calorimetry.

Assay [4] concerns the target T1, Flavin reductase (NADPH) (Homo sapiens). Description: Binding affinity to human N-terminal His6-tagged and thrombin cleavage fused BLVRB expressed in Escherichia coli BL21 (DE3) assessed as change in entropy by isothermal titration calorimetry.

For `O=C(O)c1ccc(-n2nc(-c3ccccc3O)nc2-c2ccccc2O)cc1` [DEFERASIROX], the deltaH in assay [1] was -7.32 kcal/mol. In addition, the deltaG in assay [2] was -7.87 kcal/mol. Moreover, in assay [3], the equilibrium dissociation constant (Kd) (commonly the constant that tells how readily two partners part at equilibrium) was 1710 nM. The TdeltaS in assay [4] was 0.55 kcal/mol.
On to `Cc1nc(-c2ccc(OCC(C)C)c(C#N)c2)sc1C(=O)O` [FEBUXOSTAT], for which the deltaH in assay [1] was -5.75 kcal/mol. The deltaG in assay [2] was -7.9 kcal/mol. Besides, the equilibrium dissociation constant (Kd) in assay [3] turned out to be 1630 nM. Also, in assay [4], the TdeltaS was 2.14 kcal/mol.
For the compound `O=C1OC2(c3ccccc31)c1cc(I)c(O)c(I)c1Oc1c2cc(I)c(O)c1I` [ERYTHROSINE], the deltaH in assay [1] was -6.38 kcal/mol. The deltaG in assay [2] is -9.28 kcal/mol. The Kd in assay [3] worked out at 160 nM. The TdeltaS in assay [4] was determined as 2.91 kcal/mol.
As to `CC1(C)CCC(C)(C)c2cc(NC(=O)c3ccc(C(=O)O)cc3)ccc21`, the deltaH in assay [1] was -4.49 kcal/mol. Moreover, the deltaG in assay [2] was -7.99 kcal/mol. In addition, in assay [4], the TdeltaS was determined as 3.5 kcal/mol.
Consider `O=C(O)c1cccc(-c2noc(-c3ccccc3F)n2)c1`, for which, in assay [1], the deltaH was -11 kcal/mol. The deltaG in assay [2] was -9.13 kcal/mol. Besides, the Kd in assay [3] worked out at 200 nM. The TdeltaS in assay [4] was -1.83 kcal/mol.
With `O=C(O)c1c(Cl)c(Cl)c(Cl)c(Cl)c1-c1c2cc(Br)c(=O)c(Br)c-2oc2c(Br)c(O)c(Br)cc12`, the deltaH in assay [1] was -3.88 kcal/mol. Further, the deltaG in assay [2] was -8 kcal/mol. Also, the Kd in assay [3] was determined as 1360 nM. Moreover, in assay [4], the TdeltaS is 4.12 kcal/mol.
Take `O=C(O)c1cc(/N=N/c2ccc(S(=O)(=O)Nc3ccccn3)cc2)ccc1O`: the deltaH in assay [1] is -9.43 kcal/mol. For the same compound, in assay [2], the deltaG is -8.67 kcal/mol. In assay [4], the TdeltaS is -0.76 kcal/mol.
